Results as given in patent publication US20200085776A1, “Methods of Reducing C-Reactive Protein and/or Treating Cardiovascular Disease” (CARDAX, INC., priority 2018, published 2020).
Where two headings read alike, the source gives them in different places.

What was measured:
Type in all cases: in vivo, human
[1] = tested on: Triglycerides; assay: Fasting lipid panel: triglycerides, CHASE clinical study; conditions: for Triglycerides V2 to V6 % Change Max / Triglycerides V2 to V6 % Change Mean (SD) / Triglycerides V2 to V6 % Change Median / Triglycerides V2 to V6 % Change Min / Triglycerides V2 to V6 Change Max / Triglycerides V2 to V6 Change Mean (SD) / Triglycerides V2 to V6 Change Median / Triglycerides V2 to V6 Change Min: baseline to Week 12
Description: Blood samples shall be obtained under fasted conditions for a lipid panel at V2, V4, V6, V7, and V8. This panel shall include total cholesterol, LDL-C, VLDL-C, HDL-C, and triglycerides. A minimum eight-hour fast (water allowed) is required for the lipid panel.
Fasting lipid profiles and fasting chemistry panels may be obtained within the visit time window on a day separate from the scheduled office visit, within two days before or after the other study procedures. A minimum of eight hours fasted (water allowed ad lib) is required.
(§1) Table 7M provides the changes in lipid levels (mg/dL) (V2 to V6) for subjects.

[2] = tested on: Oxidized LDL; assay: Oxidized LDL, CHASE clinical study; set-up: Oxidized LDL Mean (SD) / Oxidized LDL Median / Oxidized LDL Min / Oxidized LDL Max / Oxidized LDL V2 to V6 Change Median / Oxidized LDL V2 to V6 Change Max: unit not given here; conditions: all subjects; for Oxidized LDL V2 to V6 % Change Max / Oxidized LDL V2 to V6 % Change Mean (SD) / Oxidized LDL V2 to V6 % Change Median / Oxidized LDL V2 to V6 % Change Min / Oxidized LDL V2 to V6 Change Max / Oxidized LDL V2 to V6 Change Mean (SD) / Oxidized LDL V2 to V6 Change Median / Oxidized LDL V2 to V6 Change Min: baseline to Week 12
Description: Samples shall be obtained for TNF-α, IL-1β, IL-6, IFN-γ, and oxLDL at V2, V4, V6, and V8 I.
as §1

[3] = Astaxanthin levels in plasma (PK), CHASE clinical study; conditions: for concentration at 12 week: human, oral
Description: Blood samples shall be collected for astaxanthin analysis at V2, V4, V6, and V8.
The approximate time of the most recent dose prior to PK sampling shall be documented. PK sampling is sparse, sample acquisition in relationship to the most recent dose will vary, and formal PK calculations (e.g., Tmax, Cmax, T1/2, AUC) are not possible from the collections scheduled. Analysis will consist of a tabular listing and comparison by treatment group with calculation of the mean, median, standard deviation, maximum, and minimum at the nominal visits. Sub-analysis by subject demographic and clinical characteristics (e.g., gender, age, weight, and smoking status) may be performed at the discretion of the Sponsor.
PK samples will be collected into a 6.0 mL K2EDTA tube, gently inverted sufficient times to mix the sample and anticoagulant, and placed in an ice bath for 15 minutes.
The blood samples will be centrifuged at 3500 rpm for ten minutes at room temperature for 10 minutes. Any hemolyzed or clotted samples will be documented in the study data.
All resultant plasma will be split into two approximately equal aliquots and frozen at −60 to −90° C. Samples may be initially placed on dry ice prior to being stored in the appropriate freezer.

[4] = Group X 12 mg BID, V2 baseline pre-dose, all subjects
[5] = Group X 12 mg BID, V2 baseline pre-dose, subjects with hyperlipidemia
[6] = Group X 12 mg BID, V6 Week 12, all subjects
[7] = Group X 12 mg BID, V6 Week 12, subjects with hyperlipidemia
[8] = Group X 12 mg BID, all subjects
[9] = Group X 12 mg BID, subjects with hyperlipidemia
[10] = Group Z 48 mg BID, V2 baseline pre-dose, all subjects
[11] = Group Z 48 mg BID, V2 baseline pre-dose, subjects with hyperlipidemia
[12] = Group Z 48 mg BID, V6 Week 12, all subjects
[13] = Group Z 48 mg BID, V6 Week 12, subjects with hyperlipidemia
[14] = Group Z 48 mg BID, all subjects
[15] = Group Z 48 mg BID, subjects with hyperlipidemia
[16] = Group X 12 mg BID, V2 baseline pre-dose
[17] = Group Z 48 mg BID, V2 baseline pre-dose
[18] = Group X 12 mg BID, V2 baseline pre-dose, BQL (less than 9.77 ng/mL) treated as 4.885
[19] = Group Z 48 mg BID, V2 baseline pre-dose, BQL (less than 9.77 ng/mL) treated as 4.885

## CC1=C(/C=C/C(C)=C/C=C/C(C)=C/C=C/C=C(C)/C=C/C=C(C)/C=C/C2=C(C)C(=O)C(O)CC2(C)C)C(C)(C)CC(O)C1=O (stereo not shown) [Astaxanthin, astaxanthin]
[1]; [4]
  Triglycerides Max: 482.0 mg/dL
  Triglycerides Mean (SD): 201.9 (122.2) mg/dL
  Triglycerides Median: 177.0 mg/dL
  Triglycerides Min: 59.00 mg/dL
[1]; [5]
  Triglycerides Max: 482.0 mg/dL
  Triglycerides Mean (SD): 235.8 (126.1) mg/dL
  Triglycerides Median: 253.5 mg/dL
  Triglycerides Min: 80.00 mg/dL
[1]; [6]
  Triglycerides Max: 420.0 mg/dL
  Triglycerides Mean (SD): 177.4 (109.8) mg/dL
  Triglycerides Median: 131.0 mg/dL
  Triglycerides Min: 70.00 mg/dL
[1]; [7]
  Triglycerides Max: 420.0 mg/dL
  Triglycerides Mean (SD): 202.3 (120.2) mg/dL
  Triglycerides Median: 211.5 mg/dL
  Triglycerides Min: 70.00 mg/dL
[1]; [8]
  Triglycerides V2 to V6 % Change Max: 42.37%
  Triglycerides V2 to V6 % Change Mean (SD): −7.10 (27.88) %
  Triglycerides V2 to V6 % Change Median: −12.9%
  Triglycerides V2 to V6 % Change Min: −61.5%
  Triglycerides V2 to V6 Change Max: 56.00 mg/dL
  Triglycerides V2 to V6 Change Mean (SD): −24.6 (59.47) mg/dL
  Triglycerides V2 to V6 Change Median: -26.0 mg/dL
  Triglycerides V2 to V6 Change Min: -166 mg/dL
[1]; [9]
  Triglycerides V2 to V6 % Change Max: 22.76%
  Triglycerides V2 to V6 % Change Mean (SD): −12.9 (26.00) %
  Triglycerides V2 to V6 % Change Median: −14.5%
  Triglycerides V2 to V6 % Change Min: −61.5%
  Triglycerides V2 to V6 Change Max: 56.00 mg/dL
  Triglycerides V2 to V6 Change Mean (SD): −33.5 (66.92) mg/dL
  Triglycerides V2 to V6 Change Median: -34.0 mg/dL
  Triglycerides V2 to V6 Change Min: -166 mg/dL
[1]; [10]
  Triglycerides Max: 1677 mg/dL
  Triglycerides Mean (SD): 283.5 (368.2) mg/dL
  Triglycerides Median: 175.0 mg/dL
  Triglycerides Min: 75.00 mg/dL
[1]; [11]
  Triglycerides Max: 1677 mg/dL
  Triglycerides Mean (SD): 321.9 (407.8) mg/dL
  Triglycerides Median: 182.0 mg/dL
  Triglycerides Min: 82.00 mg/dL
[1]; [12]
  Triglycerides Max: 650.0 mg/dL
  Triglycerides Mean (SD): 192.2 (155.1) mg/dL
  Triglycerides Median: 145.5 mg/dL
  Triglycerides Min: 63.00 mg/dL
[1]; [13]
  Triglycerides Max: 650.0 mg/dL
  Triglycerides Mean (SD): 213.1 (170.3) mg/dL
  Triglycerides Median: 149.5 mg/dL
  Triglycerides Min: 76.00 mg/dL
[1]; [14]
  Triglycerides V2 to V6 % Change Max: 115.2%
  Triglycerides V2 to V6 % Change Mean (SD): −0.96 (43.74) %
  Triglycerides V2 to V6 % Change Median: −16.2%
  Triglycerides V2 to V6 % Change Min: −49.5%
  Triglycerides V2 to V6 Change Max: 348.0 mg/dL
  Triglycerides V2 to V6 Change Mean (SD): −9.89 (109.9) mg/dL
  Triglycerides V2 to V6 Change Median: -24.5 mg/dL
  Triglycerides V2 to V6 Change Min: -178 mg/dL
[1]; [15]
  Triglycerides V2 to V6 % Change Max: 115.2%
  Triglycerides V2 to V6 % Change Mean (SD): 0.07 (48.86) %
  Triglycerides V2 to V6 % Change Median: −21.5%
  Triglycerides V2 to V6 % Change Min: −49.5%
  Triglycerides V2 to V6 Change Max: 348.0 mg/dL
  Triglycerides V2 to V6 Change Mean (SD): −12.0 (124.4) mg/dL
  Triglycerides V2 to V6 Change Median: -29.0 mg/dL
  Triglycerides V2 to V6 Change Min: -178 mg/dL
[2]; [16]
  Oxidized LDL Max: 87.00
  Oxidized LDL Mean (SD): 51.64 (18.34)
  Oxidized LDL Median: 49.00
  Oxidized LDL Min: 29.00
[2]; Group X 12 mg BID, V6 Week 12
  Oxidized LDL Max: 85.00
  Oxidized LDL Mean (SD): 51.18 (17.62)
  Oxidized LDL Median: 46.00
  Oxidized LDL Min: 34.00
[2]; Group X 12 mg BID
  Oxidized LDL V2 to V6 % Change Max: 17.24%
  Oxidized LDL V2 to V6 % Change Mean (SD): 0.41 (12.46) %
  Oxidized LDL V2 to V6 % Change Median: 2.86%
  Oxidized LDL V2 to V6 % Change Min: −26.0%
  Oxidized LDL V2 to V6 Change Max: 6.00
  Oxidized LDL V2 to V6 Change Mean (SD): −0.45 (5.65)
  Oxidized LDL V2 to V6 Change Median: 1.00
  Oxidized LDL V2 to V6 Change Min: −13.0
[2]; [17]
  Oxidized LDL Max: 86.00
  Oxidized LDL Mean (SD): 55.00 (17.80)
  Oxidized LDL Median: 59.00
  Oxidized LDL Min: 24.00
[2]; Group Z 48 mg BID, V6 Week 12
  Oxidized LDL Max: 77.00
  Oxidized LDL Mean (SD): 46.22 (15.21)
  Oxidized LDL Median: 48.00
  Oxidized LDL Min: 25.00
[2]; Group Z 48 mg BID
  Oxidized LDL V2 to V6 % Change Max: 24.39%
  Oxidized LDL V2 to V6 % Change Mean (SD): −12.7 (19.64) %
  Oxidized LDL V2 to V6 % Change Median: −10.1%
  Oxidized LDL V2 to V6 % Change Min: −43.8%
  Oxidized LDL V2 to V6 Change Max: 10.00
  Oxidized LDL V2 to V6 Change Mean (SD): −8.22 (12.33)
  Oxidized LDL V2 to V6 Change Median: −4.00
  Oxidized LDL V2 to V6 Change Min: −36.0
[3]; [18]
  astaxanthin levels Max: 4.89, 4.89 ng/mL
  astaxanthin levels Mean (SD): 4.89 (0.00) ng/mL
  astaxanthin levels Median: 4.89 ng/mL
  astaxanthin levels Min: 4.89, 4.89 ng/mL
[3]; Group X 12 mg BID, V6 Week 12
  astaxanthin levels Max: 1282 ng/mL
  astaxanthin levels Min: 190.9 ng/mL
[3]; [19]
  astaxanthin levels Max: 221.0 ng/mL
  astaxanthin levels Mean (SD): 17.12 (49.44) ng/mL
  astaxanthin levels Median: 4.89 ng/mL
  astaxanthin levels Min: 4.89 ng/mL
[3]; Group Z 48 mg BID, V6 Week 12
  astaxanthin levels Max: 7030 ng/mL
  astaxanthin levels Min: 409.0 ng/mL
[3]; 12 mg, Group X 12 mg BID, V6 Week 12, read-out: astaxanthin levels Mean (SD)
  concentration at 12 week: 785 ng/mL
[3]; 12 mg, Group X 12 mg BID, V6 Week 12, read-out: astaxanthin levels Median
  concentration at 12 week: 790 ng/mL
[3]; 48 mg, Group Z 48 mg BID, V6 Week 12, read-out: astaxanthin levels Mean (SD)
  concentration at 12 week: 2590 ng/mL
[3]; 48 mg, Group Z 48 mg BID, V6 Week 12, read-out: astaxanthin levels Median
  concentration at 12 week: 2180 ng/mL
